Source: ChEMBL document CHEMBL3044757, “Design, synthesis and in vitro antimicrobial activity of novel phenylbenzamido-aminothiazole-based azasterol mimics” (2013)
Values after ≈ are worked out from the molar mass of the structure shown. Active and inactive are the calls of the source. The rule behind the calls is not given here.

Experiments:
Type in all cases: functional
Escherichia coli = assay: Antibacterial activity against Escherichia coli assessed as growth inhibition after 18 to 24 hr by resazurin assay
Bacillus licheniformis = assay: Antibacterial activity against Bacillus licheniformis assessed as growth inhibition after 18 to 24 hr by resazurin assay
Enterobacter cloacae = assay: Antibacterial activity against Enterobacter cloacae assessed as growth inhibition after 18 to 24 hr by resazurin assay
Alternaria alternata [1] = assay: Antifungal activity against Alternaria alternata assessed as inhibition of fungal spore germination after 24 hr by compound microscopic analysis relative to control
Fusarium oxysporum [2] = assay: Antifungal activity against Fusarium oxysporum assessed as inhibition of fungal spore germination after 24 hr by compound microscopic analysis relative to control
Curvularia lunata [3] = assay: Antifungal activity against Curvularia lunata assessed as inhibition of fungal spore germination after 24 hr by compound microscopic analysis relative to control
Fusarium oxysporum [4] = assay: Antifungal activity against Fusarium oxysporum assessed as inhibition of fungal spore germination after 24 hr by compound microscopic analysis relative to nystatin
Alternaria alternata [5] = assay: Antifungal activity against Alternaria alternata assessed as inhibition of fungal spore germination after 24 hr by compound microscopic analysis relative to nystatin
Curvularia lunata [6] = assay: Antifungal activity against Curvularia lunata assessed as inhibition of fungal spore germination after 24 hr by compound microscopic analysis relative to nystatin
[7] = system: Mycobacterium tuberculosis; assay: Antibacterial activity against Mycobacterium tuberculosis H37Rv assessed as growth inhibition after 5 days by microplate Alamar blue assay; conditions: 120 h
[8] = dose or concentration not given here

Row | Molecule | MIC (Escherichia coli) | MIC (Bacillus licheniformis) | MIC (Enterobacter cloacae) | inhibition (Alternaria alternata [1]) | inhibition (Fusarium oxysporum [2]) | inhibition (Curvularia lunata [3]) | fold change (FC) (Fusarium oxysporum [4]) | fold change (FC) (Alternaria alternata [5]) | fold change (FC) (Curvularia lunata [6]) | MIC [7] | inhibition (Alternaria alternata [1]; [8]) | inhibition (Fusarium oxysporum [2]; [8]) | inhibition (Curvularia lunata [3]; [8])
1 | O=C(N[C@H](CO)[C@H](O)c1ccc([N+](=O)[O-])cc1)C(Cl)Cl [CHLORAMPHENICOL] | 3.9 µg/mL (≈ 12.1 µM) | 0.0039 µg/mL (≈ 0.0121 µM) | 3.9 µg/mL (≈ 12.1 µM) | – | – | – | – | – | – | – | – | – | –
2 | Cc1ccc(/N=N/c2sc(N)nc2-c2ccc(NC(=O)c3ccccc3)cc2)cc1 | 125 µg/mL (≈ 302 µM) | 0.125 µg/mL (≈ 0.302 µM) | 250 µg/mL (≈ 605 µM) | inactive | inactive | inactive | – | – | – | – | – | – | –
3 | Nc1nc(-c2ccc(NC(=O)c3ccccc3)cc2)c(/N=N/c2ccc(Cl)cc2)s1 | 250 µg/mL (≈ 576 µM) | 0.125 µg/mL (≈ 0.288 µM) | 250 µg/mL (≈ 576 µM) | inactive | inactive | inactive | – | – | – | – | – | – | –
4 | Nc1nc(-c2ccc(NC(=O)c3ccccc3)cc2)c(/N=N/c2ccccc2Cl)s1 | 125 µg/mL (≈ 288 µM) | 0.125 µg/mL (≈ 0.288 µM) | 250 µg/mL (≈ 576 µM) | – | – | – | 1.17 | 1.8 | 1.73 | – | – | – | –
5 | Nc1nc(-c2ccc(NC(=O)c3ccccc3)cc2)c(/N=N/c2cccc([N+](=O)[O-])c2)s1 | 62.5 µg/mL (≈ 141 µM) | 0.0625 µg/mL (≈ 0.141 µM) | 250 µg/mL (≈ 562 µM) | inactive | inactive | inactive | – | – | – | – | – | – | –
6 | Nc1nc(-c2ccc(NC(=O)c3ccccc3)cc2)c(/N=N/c2ccccc2[N+](=O)[O-])s1 | 125 µg/mL (≈ 281 µM) | 0.125 µg/mL (≈ 0.281 µM) | 250 µg/mL (≈ 562 µM) | – | – | – | 1.49 | 1.71 | – | – | – | – | –
7 | Nc1nc(-c2ccc(NC(=O)c3ccccc3)cc2)cs1 | 7.8 µg/mL (≈ 26.4 µM) | 0.125 µg/mL (≈ 0.423 µM) | 250 µg/mL (≈ 846 µM) | – | – | – | – | 1.31 | 1.06 | 16 µg/mL (≈ 54.2 µM) | – | – | –
8 | COc1ccc(/N=N/c2sc(N)nc2-c2ccc(NC(=O)c3ccccc3)cc2)cc1 | 7.8 µg/mL (≈ 18.2 µM) | 0.125 µg/mL (≈ 0.291 µM) | 250 µg/mL (≈ 582 µM) | inactive | inactive | inactive | – | – | – | – | – | – | –
9 | Nc1nc(-c2ccc(NC(=O)c3ccccc3)cc2)c(/N=N/c2ccccc2)s1 | 62.5 µg/mL (≈ 156 µM) | 0.25 µg/mL (≈ 0.626 µM) | 250 µg/mL (≈ 626 µM) | inactive | inactive | inactive | – | – | – | – | – | – | –
10 | Nc1nc(-c2ccc(NC(=O)c3ccccc3)cc2)c(/N=N/c2ccc(Br)cc2)s1 | 250 µg/mL (≈ 523 µM) | 0.25 µg/mL (≈ 0.523 µM) | 250 µg/mL (≈ 523 µM) | – | – | – | 2.07 | 1.11 | – | – | – | – | –
11 | Nc1nc(-c2ccc(NC(=O)c3ccccc3)cc2)c(/N=N/c2cccc(Cl)c2)s1 | 250 µg/mL (≈ 576 µM) | 0.125 µg/mL (≈ 0.288 µM) | 250 µg/mL (≈ 576 µM) | inactive | inactive | inactive | – | – | – | – | – | – | –
12 | NYSTATIN | – | – | – | – | – | – | – | – | – | – | 100% | 100% | 100%
13 | Nc1nc(-c2ccc(NC(=O)c3ccccc3)cc2)c(/N=N/c2ccc([N+](=O)[O-])cc2)s1 | 62.5 µg/mL (≈ 141 µM) | 0.0312 µg/mL (≈ 0.0703 µM) | 125 µg/mL (≈ 281 µM) | – | – | – | – | – | – | – | – | – | –
